Measurements: patent publication US6254898A, “Nutraceutical composition for protection against solar radiation” (Protective Factors, Inc., priority 2000, dated 2001)

Assays:
[1] = DPPH radical reduction (cell-free spectrophotometric assay); assay type: biochemical; conditions: at the dilutions tested
Protocol: (§1) The cytotoxic effects of ultraviolet A irradiation on mammalian cells (e.g., skin fibroblasts) have been attributed largely to photoreactions that generate reactive oxygen species, such as superoxide and hydrogen peroxide. The free radical scavenging activity of the blend and its components was determined in vitro using spectrophotometric assays (Yen, G. C. and Duh, P. D., J. Agric. Food Chem., 42: 629-632, 1994; Facino, R. M., Carini, M., Aldini, G., Berti, F., and Rossoni, G., Planta Med., 65: 614-619, 1999). The superoxide scavenging activity was assessed in a non-enzymatic system. The reduction of the stable free radical DPPH (2,2-diphenyl-1-picrylhydrazyl radical), indicative of the neutralizing action upon the already formed free radicals, also was determined in a cell-free system. […]
(§2) The superoxide scavenging activity was determined in a superoxide generating system containing 20 μM of phenazine methosulfate, 156 μM of β-NADH, 50 mM of phosphate buffer, and the extracts at various levels. The reaction was initiated by adding nitroblue tetrazolium (25 μM) and the reduction was monitored using a spectrophotometer at 556 nm. […] The reduction in absorbence was measured using a spectrophotometer at 515 nm. […] The percent inhibition is expressed as the quenching ratio represented by the following formula: [formula]

[2] = test system: fibroblast cell line BALB/3T3 clone A31; assay: UV protecting activity: viability of UVA-irradiated fibroblasts (MTT assay); assay type: cell-based, mouse; conditions: UVA-irradiated BALB/3T3 cells
Protocol: Exposure of skin to sunlight especially to ultraviolet A (320-380 nm) radiation has been reported to induce photochemical generation of reactive oxygen species, resulting in membrane lipid peroxidation, photodamage to DNA, and inactivation of fibroblasts. […] A mammalian fibroblast cell line was used to determine the UV-protective action of the blend and the components at a cellular level.
Dulbecco's Modified Eagle Medium (DMEM) with 4 mM L-glutamine and 110 mg/l sodium pyruvate, Dulbecco's phosphate buffered saline (DPBS) without calcium or magnesium, fetal bovine serum, trypsin-EDTA solution, 2-thiobarbituric acid, MTT, and trichloroacetic acid were obtained from Sigma. […] The capsule's contents were extracted in ethanol [0.5 g (contents of one capsule) in 5 ml ethanol and the components at concentrations incorporated in the blend in 5 ml ethanol]. The extracts were diluted using the culture medium or DPBS.
Cells were maintained in 250 ml Corning flasks having a 0.2 μ vented cap in 10 ml of DMEM supplemented with 10% fetal bovine serum. The cultures were incubated at 37° C. in a CO2 incubator with 90% air and 10% CO2. The cells were subcultured every 5 days.
Assays were performed in 35 mm Costar tissue culture plates. The cells were plated at a density of 90,000 cells per well in the growth medium and allowed to attach and grow for 48 hr. The medium was changed after 36 hr with fresh medium containing the extracts at different concentrations. After 12 hr of incubation with the test extracts, the cells were washed with DPBS to remove the original medium. One ml of DPBS with or without the test extracts was added to each dish. The cells were incubated for 1 hr before exposure to UV irradiation. Non-irradiated cells were used as the control. […] Biophys. […] The results are the means ±SD of triplicate measurements.

[3] = target: T1, Trypsin Type III from bovine pancreas (Bos taurus, UniProt P00760); assay: Trypsin inhibitory activity (BAPNA substrate); assay type: biochemical; conditions: at the dilutions tested for the blend
T1 construct: purchased Sigma; host or cells: bovine pancreas
T1 sequence (P00760 24-246): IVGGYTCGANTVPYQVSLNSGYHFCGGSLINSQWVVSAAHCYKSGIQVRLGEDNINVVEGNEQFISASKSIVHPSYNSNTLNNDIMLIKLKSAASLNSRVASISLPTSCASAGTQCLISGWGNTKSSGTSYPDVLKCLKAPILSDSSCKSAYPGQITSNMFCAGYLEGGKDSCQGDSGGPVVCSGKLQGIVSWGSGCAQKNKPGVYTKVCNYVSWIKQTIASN
Protocol: Serine protease inhibitory activity was determined in vitro by measuring the trypsin inhibitory activity of the blend and its components. Trypsin inhibitory activity was determined by the spectrophotometric determination of the release of p-nitroaniline from a synthetic substrate N-α-benzoyl-DL-arginine-p-nitroanilide hydrochloride (BAPNA) (Parellada, J. and Guinea, M., J. Nat. Prod., 58: 823-829, 1995; Geiger, R. and Fritz, H., In Methods of Enzymatic Analysis, Bergmeyer, H. V., et al (Eds), Verlag-Chemie, Basel, Switzerland, Vol. V, p. 119-129, 1984).
Trypsin Type III from bovine pancreas, BAPNA, and p-nitroaniline were obtained from Sigma. The inventive blend and its components were supplied in a capsule containing: green tea extract, 250 mg; lutein, 15 mg; Se, 50 mcg; and lipoic acid, 50 mg. The capsule's contents were extracted in ethanol [0.5 g (contents of one capsule) in 5 ml ethanol and the components at concentrations incorporated in the blend in 5 ml ethanol].
Aliquots of the enzyme solution (0.25 ml of a 1060 units/ml solution in 0.05 M Tris buffer, pH 7.8) and the buffer (0.25 ml) with various concentrations of the test extracts and without extracts (reference solution) were pre-incubated at 37° C. for 10 min. Blank samples were prepared by inactivating the enzyme with 0.5 ml of 2 M acetic acid before incubation. The enzymatic reaction was started by adding to the reaction mixture 1.25 ml of the substrate solution (1 mM in 0.05 M Tris buffer, pH 7.8). The mixture was incubated for 10 min and the reaction was stopped by adding 0.5 ml of 2 M acetic acid. The p-nitroaniline released was measured using a spectrophotometer at 410 nm. The results are the means ±SD of triplicate measurements. The inhibitory activity is expressed as the inhibition ratio represented by the following formula: [formula]

[4] = Superoxide scavenging activity in a non-enzymatic superoxide generating system; assay type: biochemical; conditions: at the dilutions tested
Protocol: as §1, §2

Row | Structure (SMILES) | DPPH: activity among the four components [1] | UV protection: activity of the components [2] | trypsin: activity of the components [3] | range of concentrations at which the component was active in the UV protection assay [2] [µg/mL] | superoxide: activity among the four components [4]
1 | CC1=C[C@H](O)CC(C)(C)[C@H]1/C=C/C(C)=C/C=C/C(C)=C/C=C/C=C(C)/C=C/C=C(C)/C=C/C1=C(C)C[C@@H](O)CC1(C)C [lutein] | most active | active | active |  | 
2 | C[Se]CC[C@H](N)C(=O)O [selenium, selenomethionine] |  | active | active | 0.001 to 1 | 
3 | O=C(O)CCCCC1CCSS1 (stereo not shown) [lipoic acid, 6,8-thioctic acid] |  | active | active | 1 to 1000 | most active
